Test results from BindingDB's records for doi:10.1021/jm010496a (Pfizer, 2002).

Target: Fructose-1,6-bisphosphatase 1 (Sus scrofa) (UniProt P00636)
Assay: Concentration required for 50% Inhibition against recombinant wild type pig enzyme (F16BP) Fructose-1,6-bisphosphatase

Sequence of Fructose-1,6-bisphosphatase 1 (Sus scrofa) (P00636 whole entry, looked up): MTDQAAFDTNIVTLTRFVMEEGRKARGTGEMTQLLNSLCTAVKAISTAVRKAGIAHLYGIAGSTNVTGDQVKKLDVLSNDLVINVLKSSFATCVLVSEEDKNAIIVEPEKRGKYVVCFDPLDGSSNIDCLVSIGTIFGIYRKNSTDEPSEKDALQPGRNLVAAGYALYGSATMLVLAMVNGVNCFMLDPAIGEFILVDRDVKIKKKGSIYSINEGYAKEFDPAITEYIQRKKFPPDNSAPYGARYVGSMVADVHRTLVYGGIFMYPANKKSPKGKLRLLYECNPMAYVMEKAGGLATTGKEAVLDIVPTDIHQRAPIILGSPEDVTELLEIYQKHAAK

CCOc1cc2nc(CN(C)C)nc(Nc3cccc(-c4csc(C(N)=O)n4)c3)c2cc1OCC [4-[3-(2-Dimethylaminomethyl-6,7-diethoxy-quinazolin-4-ylamino)-phenyl]-thiazole-2-carboxylic acid amide]
IC50: 9.5 µM
